In one experiment the test system is Jurkat (human leukemia). The experiment can be described thus: Cytotoxic activity, XTT assay, Jurkat. The class given is cell-based. As to conditions: 72 h, mean ±SD. In outline:
(§1)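 HepG2, HeLa and Chang liver cells (8×10^3, 1×10^3, 5×10^3 cells/well) pre-grown 24 h, treated 72 h in triplicate (DMSO <0.1%), MTT 0.5 mg/ml 1 h, read 550 nm. Jurkat (5.5×10^3 cells/well) treated 72 h, XTT 4 h, read 450 nm. IC50 as mean±SD of at least three experiments.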

The next experiment deals with Chang liver cells. Briefly: Cell cycle analysis by flow cytometry (FACS, PI), Chang liver. The class given is cell-based, human. As to conditions: for effect on cell cycle in non-malignant cell line: IC80 values determined for HepG2, 72 h; for Phase of cell cycle (% of cells) G0/G1 / Phase of cell cycle (% of cells) G2/M / Phase of cell cycle (% of cells) S: compound at IC80 determined for HepG2, 72 h. The method, then: The effects on the cell cycle of some of these compounds were assessed through flow cytometry by using a fluorescence-activated cell sorter (FACS) (Table 5 below). For this assay 2.3×10^5 HepG2 cells/well, 2.9×10^4 HeLa cells/well, 1.6×10^5 Jurkat cells/well and 1.4×10^5 Chang liver cells/well were plated in 6 well plates with 2 ml of medium. The number of cells was determined by the relationship number of cells/area wells, considering the number of cells that were cultured in 96-well plates. […] Following 72 h. of incubation, cells were harvested by mild trypsinization, collected by centrifugation and stained in ice-cold Tris-buffered saline (TBS), containing 1 mg/ml PI, 10 mg/ml RNAse free of DNAase and 0.1% Igepal CA-630 for 1 h at 4° C. FACS analysis was carried out at 488 nm in an Epics XL flow cytometer (Coulter Corporation, Hialeah, Fla.). Data from 8×10^3 cells were collected and analyzed using Multicycle program (Phoenix Flow Systems, San Diego, Calif.). All experiments were performed three times with three replicates per experiment. […] To explore the selectivity of the effect on tumor cells, we also tested compounds 20, 44 and 46 in a non-malignant cell line.

The subject of a further experiment is Jurkat cells. The experiment can be described thus: Apoptosis, Annexin V-FITC/PI FACS, Jurkat. The class given is cell-based, human. As to conditions: at IC50, 72 h, FIG. 8. The method, then: (§2) Assessment of apoptosis was performed 72 h after treatment with derivatives at their IC50. Briefly, the same number of HepG2, HeLa, Jurkat and Chang liver cells as in the cell cycle assay were treated with compounds 20, 44, 46 and betulinic acid 2, as described above. Cells were collected washed once in ice-sold binding buffer (10 mM HEPES/NaOH, pH 7.4, 140 mM NaCl, 2.5 mM CaCl2) and ressuspended in the same buffer (95 μl) at a maximum, of 8×10^5 cells/ml. Annexin V-FITC conjugate (1 μg/ml) was added and incubated for 30 min at room temperature in darkness. Just before FACS analysis, cells were stained with 20 μl of […]. Approximately 1×10^4 cells were analysed for each histogram and experiments were performed three times with triplicates per experiment. FACS analysis using Annexin V-FITC staining and PI accumulation was used to differentiate early apoptotic cells (Annexin V^+ and PI^−) from necrotic or late apoptotic cells (Annexin V^+ and PI^+). […] In comparison with untreated controls, compound 44 treatment of HepG2 cells generated apoptosis in 53% of cells (42% of early apoptosis and 11% of late apoptosis), compound 46 generated apoptosis in 38% of cells (28% of early apoptosis plus 10% late apoptosis) and compound 20 induced apoptosis in 29% of cells (22% of early apoptosis plus 7% late apoptosis) (FIG. 8).

Experiment [1] concerns Chang liver (normal liver cell line). Briefly: Apoptosis, Annexin V-FITC/PI FACS, Chang liver. The class given is cell-based, human. As to conditions: at the IC80 found for HepG2, FIG. 8. The method, then:
as §2, with “Briefly,” for “Assessment of apoptosis was performed 72 h after treatment with derivatives at their IC50. Briefly,”

Experiment [2] relates to HepG2 (human hepatocellular carcinoma). Briefly: Cytotoxic activity, MTT assay, HepG2. The class given is cell-based. As to conditions: 72 h, mean ±SD. In outline: as §1

The results in this text go back to US8969395B2, “Triterpenoid derivatives useful as antiproliferative agents” (Universidade de Coimbra, priority 2009, dated 2015).

The compound `C=C(C)[C@@H]1CC[C@]2(CO)CC[C@]3(C)[C@H](CC[C@@H]4[C@@]5(C)CC[C@H](OC(=O)n6ccnc6)C(C)(C)[C@@H]5CC[C@]43C)[C@@H]12` [Compound 20, 28-hydroxy-lup-20(29)-en-3β-yl-1H-imidazole-1-carboxylate] registered an IC50 in the experiment on Jurkat (human leukemia) of 11.1 ± 1.3 µM. Moreover, in the experiment with Chang liver cells, the “effect on cell cycle in non-malignant cell line” value is “no effect”, the “Phase of cell cycle (% of cells) G0/G1” value is on record as 68.6 ± 4.2 % of cells, the “Phase of cell cycle (% of cells) G2/M” value is reported as 9.3 ± 1.3 % of cells and the “Phase of cell cycle (% of cells) S” value is given as 22.0 ± 3.0 % of cells. For the same compound, in the experiment on Jurkat cells, the “effectiveness at inducing apoptosis” value was “extremely effective”. Also, in experiment [1], the “apoptosis induction in normal liver cell line” value (from here on “apoptosis induction”) is “no effect”. Inhibition in experiment [2] was half-maximal at 2 ± 0.4 µM (IC50).
In turn, `C=C(C)[C@@H]1CC[C@]2(C(=O)n3ccnc3)CC[C@]3(C)[C@H](CC[C@@H]4[C@@]5(C)CCC(=O)C(C)(C)[C@@H]5CC[C@]43C)[C@@H]12` [Compound 44, 28-(1H-imidazol-1-yl)-lup-20(29)-en-3,28-dione] came in with a 50% inhibitory concentration (IC50) in the experiment on Jurkat (human leukemia) of 1.4 ± 0.2 µM. Moreover, in the experiment on Chang liver cells, the “effect on cell cycle in non-malignant cell line” value is recorded as “no effect”, the “Phase of cell cycle (% of cells) G0/G1” value was 68.2 ± 2.9 % of cells, the “Phase of cell cycle (% of cells) G2/M” value is 8.6 ± 0.8 % of cells and the “Phase of cell cycle (% of cells) S” value is listed as 23.2 ± 2.5 % of cells. In addition, the “effectiveness at inducing apoptosis” value in the experiment on Jurkat cells is recorded as “most effective”. For the same compound, the “apoptosis induction” value in experiment [1] is reported as “no effect”. In experiment [2], this compound displayed an IC50 of 0.8 ± 0.05 µM.
`C=C(C)[C@@H]1CC[C@]2(C(=O)n3ccnc3)CC[C@]3(C)[C@H](CC[C@@H]4[C@@]5(C)C=CC(=O)C(C)(C)[C@@H]5CC[C@]43C)[C@@H]12` [Compound 46, 28-(1H-imidazol-1-yl)-lup-1,20 (29)-dien-3,28-dione] showed an IC50 in the experiment with Jurkat (human leukemia) of 2.3 ± 0.3 µM. Also, in the experiment with Chang liver cells, the “effect on cell cycle in non-malignant cell line” value is reported as “no effect”, the “Phase of cell cycle (% of cells) G0/G1” value was 68.2 ± 4.9 % of cells, the “Phase of cell cycle (% of cells) G2/M” value was 9.2 ± 1.4 % of cells and the “Phase of cell cycle (% of cells) S” value is on record as 22.6 ± 3.8 % of cells. Further, in the experiment on Jurkat cells, the “effectiveness at inducing apoptosis” value is recorded as “extremely effective”. Also, the “apoptosis induction” value in experiment [1] is listed as “no effect”. The compound also displayed a concentration for half-maximal inhibition (IC50) in experiment [2] of 1.7 ± 0.2 µM.
